Where two headings read alike, the source gives them in different places.
Columns and labels:
[1] = PAMPA blood brain barrier permeability; assay type: in vitro ADME
Method: The ability of compounds, especially those intended to act in the CNS, to penetrate the blood-brain barrier (BBB) is an important property to consider in the initial stages of drug candidate screening. The PAMPA assay is a commonly used test to assess the passive permeation of the BBB [17]. In our study, caffeine was used as a highly permeable compound. […] After 5 h of incubation at room temperature, the results were analyzed by LC-MS, and the permeability coefficients (Pe) were calculated.
For permeability evaluation, a PAMPA Gentest™ pre-coated […] system, provided by Corning (Tewksbury, MA, USA), was used. The precise procedure was previously described. The permeability coefficient Pe was calculated based on the given equations. Concentrations of the tested compounds in the apical and basolateral wells were determined by LC/MS analysis using an internal standard.

human adenosine A2AR [2] = target: T1, human adenosine A2AR (Homo sapiens, UniProt P29274); settings: cited from earlier work
T1 construct: expressed in transfected cells; host or cells: CHO cells

human adenosine A1R [3] = target: T2, human adenosine A1R (Homo sapiens, UniProt P30542); settings: cited from earlier work; for Ki: human
T2 construct: expressed in transfected cells; host or cells: CHO cells
T2 sequence (P30542 1-326): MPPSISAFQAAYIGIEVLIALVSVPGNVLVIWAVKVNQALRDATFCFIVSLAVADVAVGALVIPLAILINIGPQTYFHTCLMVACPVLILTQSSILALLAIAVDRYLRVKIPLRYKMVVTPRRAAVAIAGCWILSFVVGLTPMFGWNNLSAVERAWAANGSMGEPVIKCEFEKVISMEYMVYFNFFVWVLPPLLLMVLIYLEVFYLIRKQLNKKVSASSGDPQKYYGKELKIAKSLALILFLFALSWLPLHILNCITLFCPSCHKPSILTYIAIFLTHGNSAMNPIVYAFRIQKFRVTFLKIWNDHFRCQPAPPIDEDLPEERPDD

[4] = target: other adenosine receptors; settings: cited from earlier work
[5] = system: carrageenan-induced edema in mice; parameters: method as in PMID 25735490; settings: 100 mg/kg ip, cited from earlier work
[6] = system: carrageenan-induced edema in rats; parameters: method as in PMID 32629282; settings: 20 mg/kg ip; cited from earlier work
human adenosine A2BR [7] = target: T3, human adenosine A2BR (Homo sapiens, UniProt P29275); parameters: method as in PMID 32629282; settings: cited from earlier work
T3 construct: expressed in transfected cells; host or cells: CHO cells
T3 sequence (P29275 1-332): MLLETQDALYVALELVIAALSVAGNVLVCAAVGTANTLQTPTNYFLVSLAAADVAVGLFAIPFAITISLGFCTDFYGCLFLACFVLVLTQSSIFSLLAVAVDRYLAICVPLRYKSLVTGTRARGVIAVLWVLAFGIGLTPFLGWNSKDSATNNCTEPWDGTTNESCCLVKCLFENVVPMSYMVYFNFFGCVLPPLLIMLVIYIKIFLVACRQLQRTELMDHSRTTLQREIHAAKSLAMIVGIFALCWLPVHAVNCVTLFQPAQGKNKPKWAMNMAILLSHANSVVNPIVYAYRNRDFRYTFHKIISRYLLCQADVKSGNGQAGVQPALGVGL

human adenosine A3R [8] = target: T4, human adenosine A3R (Homo sapiens, UniProt P0DMS8); parameters: method as in PMID 32629282; settings: cited from earlier work
T4 construct: expressed in transfected cells; host or cells: CHO cells
T4 sequence (P0DMS8 1-318): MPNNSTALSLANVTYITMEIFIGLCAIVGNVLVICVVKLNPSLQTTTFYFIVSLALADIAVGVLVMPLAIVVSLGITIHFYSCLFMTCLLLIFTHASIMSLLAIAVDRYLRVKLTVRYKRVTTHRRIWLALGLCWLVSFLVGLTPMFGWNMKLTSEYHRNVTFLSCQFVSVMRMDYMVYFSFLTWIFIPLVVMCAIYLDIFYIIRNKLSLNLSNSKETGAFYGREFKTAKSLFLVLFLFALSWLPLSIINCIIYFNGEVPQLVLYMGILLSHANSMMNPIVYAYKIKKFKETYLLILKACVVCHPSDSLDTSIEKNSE

human MAO B = target: T5, human MAO B (Homo sapiens, UniProt P27338); assay: Human MAO B inhibition, fluorometric method; assay type: biochemical; settings: mean of two independent experiments, read-out: % of hMAO B Inhibition at 1 µM
T5 sequence (P27338 1-520): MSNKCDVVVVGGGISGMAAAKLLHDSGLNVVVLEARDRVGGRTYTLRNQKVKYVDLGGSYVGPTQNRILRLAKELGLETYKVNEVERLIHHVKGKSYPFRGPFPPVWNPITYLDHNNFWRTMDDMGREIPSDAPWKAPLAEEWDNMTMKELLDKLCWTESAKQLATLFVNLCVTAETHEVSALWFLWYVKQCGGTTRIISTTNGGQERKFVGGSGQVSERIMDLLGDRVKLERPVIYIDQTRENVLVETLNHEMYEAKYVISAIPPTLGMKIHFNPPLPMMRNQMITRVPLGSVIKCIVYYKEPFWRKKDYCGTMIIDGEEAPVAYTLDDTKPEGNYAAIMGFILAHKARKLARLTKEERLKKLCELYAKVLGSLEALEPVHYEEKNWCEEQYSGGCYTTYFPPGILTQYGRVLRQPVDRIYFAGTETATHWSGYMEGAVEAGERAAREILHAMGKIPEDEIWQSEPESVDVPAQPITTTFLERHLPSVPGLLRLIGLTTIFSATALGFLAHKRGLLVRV
Method: The compounds were tested twice in duplicates at a concentration of 1 μM by fluorometric method as previously described. Paratyramine (200 μM) was used as a substrate for the enzyme. Safinamide (1 μM; reversible) and rasagiline (1 μM; irreversible) were used as reference inhibitors.

human adenosine A3R [9] = target: T4, human adenosine A3R; assay: Radioligand binding at human adenosine A3 receptor vs. [3H]PSB-11; settings: for inhibition at 1 µM: CHO cells, read-out: A3R vs. [H³]PSB-11 % Inhibition ± SEM at 1 µM; for Ki: human recombinant receptor in CHO cells, read-out: A3R vs. [H³]PSB-11 Ki ± SEM
Method: (§1) Affinities for adenosine receptors were evaluated in radioligand binding assays as previously described. Human adenosine receptors were stably expressed in CHO cells. The following radioligands were used: [^3H]2-chloro-N^6-cyclopentyladenosine ([^3H]CCPA) for A1R; [^3H]3-(3-hydroxypropyl)-7-methyl-8-(m-methoxystyryl)-1-propargylxanthine ([^3H]MSX-2) for A2AR; [^3H]8-(4-(4-(4-chlorophenyl)piperazine-1-sulfonyl)phenyl)-1-propylxanthine ([^3H]PSB-603) for A2BR; [^3H]phenyl-8-ethyl-4-methyl-(8R)-4,5,7,8-tetrahydro-1H-imidazo [2,1-i]purine-5-one ([^3H]PSB-11) for A3R. Initially, compounds were tested at a concentration of 1 µM. […] At least three independent experiments were performed. Data were analyzed using GraphPad PRISM version 5.0 or higher (Graph Pad, San Diego, CA, USA). Ki were calculated using the Cheng–Prusoff equation.

human adenosine A2BR [10] = target: T3, human adenosine A2BR; assay: Radioligand binding at human adenosine A2B receptor vs. [3H]PSB-603; settings: for inhibition at 1 µM: CHO cells, read-out: A2BR vs. [³H]PSB-603 % Inhibition ± SEM at 1 µM; for Ki: human recombinant receptor in CHO cells, read-out: A2BR vs. [³H]PSB-603 Ki ± SEM
Method: as §1

human adenosine A1R [11] = target: T2, human adenosine A1R; assay: Radioligand binding at human adenosine A1 receptor vs. [3H]CCPA; settings: for Ki: human recombinant receptor in CHO cells, read-out: A1R vs. [³H]CCPA Ki ± SEM; for inhibition at 1 µM: CHO cells, read-out: A1R vs. [³H]CCPA % Inhibition ± SEM at 1 µM
Method: as §1

human adenosine A2AR [12] = target: T1, human adenosine A2AR; assay: Radioligand binding at human adenosine A2A receptor vs. [3H]MSX-2; settings: human recombinant receptor in CHO cells; read-out: A2AR vs. [³H]MSX-2 Ki ± SEM
Method: as §1

[13] = parameters: method as in PMID 21235574; settings: animal studies; cited from earlier work
[14] = parameters: method as in PMID 30254599; settings: LPD and ibotenate models; cited from earlier work
[15] = selectivity towards other adenosine receptors

T1 sequence (P29274 whole entry): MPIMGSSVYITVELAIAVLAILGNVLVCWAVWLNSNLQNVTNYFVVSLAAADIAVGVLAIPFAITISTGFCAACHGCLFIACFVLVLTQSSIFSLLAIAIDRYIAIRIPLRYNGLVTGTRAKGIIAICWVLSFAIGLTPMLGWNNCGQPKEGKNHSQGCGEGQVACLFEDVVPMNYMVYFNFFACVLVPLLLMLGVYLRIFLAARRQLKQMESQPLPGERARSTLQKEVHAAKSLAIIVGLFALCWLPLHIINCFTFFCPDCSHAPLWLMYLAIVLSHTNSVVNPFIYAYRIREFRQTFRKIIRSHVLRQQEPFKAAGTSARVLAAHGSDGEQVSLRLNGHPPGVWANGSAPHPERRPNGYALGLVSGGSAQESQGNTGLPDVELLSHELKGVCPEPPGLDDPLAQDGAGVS

SMILES	inhibition at 1 µM (human MAO B) [%]	inhibition at 1 µM (human adenosine A3R [9]) [%]	Ki (human adenosine A3R [9]) [µM]	inhibition at 1 µM (human adenosine A2BR [10]) [%]	Ki (human adenosine A2BR [10]) [µM]	melting point [°C]	Ki (human adenosine A1R [11]) [µM]	Ki (human adenosine A2AR [12]) [µM]	inhibition at 1 µM (human adenosine A1R [11]) [%]	also measured
Cn1c(=O)c2c(ncn2C)n(C)c1=O [Caffeine, reference compound]										Drug Retention [1]: 29.46%; Papp at 5 h, 100 μM ([1]; 100 μM in PBS, 5 h, room temperature, triplicate, read-out: Pe ± SD): 6.57 ± 1.57 ×10⁻⁶ cm/s; Papp at 5 h, 100 μM ([1]; read-out: Permeable): ≥ 1.5 ×10⁻⁶ cm/s
Cn1c(=O)c2c(nc3n2CCCN3CCc2ccc(O)cc2)n(C)c1=O [KD-114]										Ki (human adenosine A2AR [2]; read-out: hA2AR Ki): 0.23 µM; Ki (human adenosine A1R [3]; read-out: hA1R Ki): > 25 µM; Ki [4, 15]: > 1 µM; reduction of edema volume ([5]; 1st, 2nd and 3rd hour): > 90%; edema at the first hour with the tested compound ([5]; control 64%): 2%
CCn1c(=O)c2c(nc(NCc3cccc(OC)c3F)n2C)n(C)c1=O [compound 1]										Ki (human adenosine A2AR [2]; read-out: A2AR Ki): 0.069 µM; Ki (human adenosine A1R [3]; read-out: hA1R Ki): > 1 µM; Ki [4, 15]: > 1 µM; inhibition of edema, 2nd hour [6]: 44%; inhibition of edema, 3rd hour [6]: 53%
CCn1c(=O)c2c(nc(NCc3ccccc3Cl)n2C)n(C)c1=O [compound 2]										Ki (human adenosine A2AR [2]; read-out: A2AR Ki): 0.071 ± 0.006 µM; A1R % Inhibition ± SEM at 1 µM (human adenosine A1R [3]; 1 µM): 22 ± 1%; Ki (human adenosine A1R [3]; read-out: A1R Ki): > 1 µM; Ki [4]: > 1 µM; A2BR % Inhibition ± SEM at 1 µM (human adenosine A2BR [7]; 1 µM): 44 ± 10%; Ki (human adenosine A2BR [7]; human): > 1 µM; A3R % Inhibition ± SEM at 1 µM (human adenosine A3R [8]; 1 µM): 14 ± 1%; Ki (human adenosine A3R [8]; human): > 1 µM
CCCn1c(=O)c2c(nc(NCc3cccc(Br)c3)n2C)n(C)c1=O [compound 16, 8-((3-Bromobenzyl)amino)-3,7-dimethyl-1-propyl-3,7-dihydro-1H-purine-2,6-dione]	11	11	> 1	30	> 1	220 to 222	0.34 ± 0.073	0.254 ± 0.059		
CCCn1c(=O)c2c(nc(NCc3ccccc3Br)n2C)n(C)c1=O [compound 12, 8-((2-Bromobenzyl)amino)-3,7-dimethyl-1-propyl-3,7-dihydro-1H-purine-2,6-dione]	7	8	> 1	33	> 1	206 to 207	> 1	0.361 ± 0.082	30	
Nc1nc2c(cnn2CCc2ccccc2)c2nc(-c3ccco3)nn12 [SCH-58261]										effect in LPS-induced inflammation model (in words) [13]: beneficial effects; effect on pro-inflammatory factors (IL-1ß, IL-6, iNOS, TNF alpha) (in words) [14]: caused a decrease in the above-mentioned cytokines
C#CCn1c(=O)c2c(nc(NCc3ccc(OC)c(OC)c3)n2C)n(C)c1=O [compound 26, 8-((3,4-dimethoxybenzyl)amino)-3,7-dimethyl-1-(prop-2-yn-1-yl)-3,7-dihydro-1H-purine-2,6-dione]	3	2	> 1	28	> 1	247 to 249	> 1	0.108 ± 0.022	-2	
CCCn1c(=O)c2c(nc(NCc3cccc(Cl)c3)n2C)n(C)c1=O [compound 15, 8-((3-Chlorobenzyl)amino)-3,7-dimethyl-1-propyl-3,7-dihydro-1H-purine-2,6-dione]	10	0	> 1	34	> 1	185 to 187	> 1	0.588 ± 0.074	40	
CCCn1c(=O)c2c(nc(NCc3ccccc3Cl)n2C)n(C)c1=O [compound 5, 8-((2-Chlorobenzyl)amino)-3,7-dimethyl-1-propyl-3,7-dihydro-1H-purine-2,6-dione]	8	4	> 1		0.832 ± 0.133	190 to 191	> 1	0.302 ± 0.034	26	

From publication PMC10531311, “Anti-Inflammatory Activities of 8-Benzylaminoxanthines Showing High Adenosine A2A and Dual A1/A2A Receptor Affinity” (International Journal of Molecular Sciences, 2023)
